Measured values published in publication PMC7861561 (Current Research in Structural Biology, 2020).
Ends that are not written are not given here.

Biological target: T1, BRPF1 bromodomain (Homo sapiens, UniProt P55201)
T1 sequence (P55201 629-742): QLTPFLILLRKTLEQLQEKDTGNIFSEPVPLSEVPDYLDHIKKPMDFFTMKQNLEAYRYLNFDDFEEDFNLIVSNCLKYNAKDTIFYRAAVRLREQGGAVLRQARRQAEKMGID
Test: biochemical
Assay type: binding
Conditions: SD

LGKGGAK(Ac)RHRK [H4K16ac (10–20)]
Kd: 518 ± 92.1 µM
